According to article PMC9503459, “Antifungal Activity, Structural Stability, and Immunomodulatory Effects on Human Immune Cells of Defensin from the Lentil Lens culinaris” (Membranes, 2022):
Values joined by “and” are separate entries in the source; they are usually repeats but may differ in a detail not shown here. Equal entries are not always repeated. No end group written: not given here.

Tested on: pro-inflammatory macrophages (Mφ1) from THP-1 cells
Assay: Cytokine response by multiplex xMAP, pro-inflammatory macrophages
Format: cell-based, human
Settings: Mφ1 macrophages (THP-1), 2 µM, 24 h
Experimental: Colorectal adenocarcinoma Caco-2 cell line (ATCC HTB-37) was cultured in complete DMEM/F12 (1:1) medium containing 10% fetal bovine serum (FBS, Gibco) and 1X antibiotic-antimycotic solution (1XAAS, Invitrogen, Waltham, MA, USA). The acute monocytic leukemia THP-1 line (ATCC TIB-202) was cultured in complete RPMI-1640 medium, containing 10% FBS, 1XAAS, and […]. THP-1 cells were differentiated into pro-inflammatory macrophages (Mφ1) with phorbol 12-myristate 13-acetate (Sigma-Aldrich) for 24 h and subsequently polarized with lipopolysaccharide from E. coli (Sigma-Aldrich) and rhIFN-γ (Sigma-Aldrich) for another 48 h according to previously reported protocol. All cells were cultured in a humidified CO2 incubator (5% CO2, 37 °C). Primary peripheral blood mononuclear cells (PBMCs) collected from a healthy donor were purchased from American Type Culture Collection (ATCC PCS-800-011). CD4^+ T-helper and CD8^+ T cytotoxic cells were isolated from PBMCs by magnetic separation with mouse anti-human CD4-PE (clone 13B8.2, Beckman Coulter Diagnostics, Pasadena, CA, USA) and CD8-PE (clone REA734, Miltenyi Biotec, Bergisch Gladbach, Germany), Anti-PE MicroBeads (Miltenyi Biotec), and LS Separation Columns (Miltenyi Biotec). Isolated CD4^+ and CD8^+ cells were expanded separately with Dynabeads™ Human T-Expander CD3/CD28 (Gibco, Waltham, MA, USA) in RPMI-1640 supplemented with 10% FBS, 1XAAS and 100 U/mL rh-IL-2 (Gibco). Regulatory CD4^+ FoxP3^+ T cells (Tregs) were isolated from PBMCs by magnetic separation with CD4^+CD25^+ Regulatory T Cell Isolation Kit, human (Miltenyi Biotec). Primary CD14^+ blood monocytes were isolated from PBMCs by adherence according to standard technique. Monocyte-derived mature dendritic cells (moDCs) were obtained from CD14^+ blood monocytes according to the previously reported protocol. Briefly, blood monocytes were incubated in complete RPMI-1640 medium, containing 10% FBS, 1XAAS, 800 U/mL rhGM-CSF (Sci-Store, Russia, Moscow) and 500 U/mL rhIL-4 (Sci-Store) for 3 days. Fresh complete RPMI-1640 medium with rhGM-CSF and rhIL-4 was added to the culture on day 3. On day 5, fresh complete RPMI-1640 containing 100 U/mL rhTNF-α (Sigma) as well as 800 U/mL rhGM-CSF and 500 U/mL rhIL-4 was added and the culture was incubated for another 4 days until full maturation.
Caco-2 cells were seeded into the wells of a 48-well plate, coated with 0.1% bovine collagen (Sigma-Aldrich) for 24 h, 3 weeks before the experiment with complete DMEM/F12 (1:1) medium renewal every 2–3 days. Monocytes, moDCs, CD4^+ T-helper and CD8^+ T cytotoxic cells, Mφ1, and Regulatory CD4^+ FoxP3^+ T cells were seeded into the wells of 48-well plates in the complete RPMI-1640 medium supplemented with 10% Human AB serum (HABS, Capricorn Scientific, Ebsdorfergrund, Germany) and 1XAAS 24 h prior to the experiment; medium in Caco-2-containing wells was also replaced with the same medium. After 24 h, half of the medium in each well was replaced by fresh complete RPMI-1640 medium with 10% HABS, supplemented with 4 µM of Lc-def for the sample wells or fresh medium alone for the control wells. Cell cultures were kept in CO2-incubator (5% CO2, 37 °C) for another 24 h. Culture supernatants were collected 24 h later and stored at −70 °C degrees less than one month prior to the analytes assessment. […]

Substance: Lc-def: defensin from lentil Lens culinaris seeds (UniProt:B3F051), recombinant, overexpressed in Escherichia coli (KTCENLSDSFKGPCIPDGNCNKHCKEKEHLLSGRCRDDFRCWCTRNC; disulfide (positions not given here); ends not checked; also: disulfide bonds present, pairing not given here; UniProt B3F051 28-74, looked up)
- EGF: 2.32 pg/mL
- Eotaxin: <3.23↓ pg/ml
- FGF-2: 16.21 pg/mL
- FLT-3L: 2.27 pg/mL
- Fractalkine: <23.19↓ pg/ml
- G-CSF: 1150 pg/mL
- GM-CSF: 74.32 pg/mL
- GROa: 545.96 pg/mL
- IFNa2: 7.77 pg/mL
- IFNg: <1.99↓ pg/ml
- IL-1RA: 101.1 pg/mL
- IL-1a: 38.93 pg/mL
- IL-1b: 471.74 pg/mL
- IL-2: <0.31↓ pg/ml
- IL-3: <0.48↓ pg/ml
- IL-4: 0.92 pg/mL
- IL-5: <0.24↓ pg/ml
- IL-6: 1022 pg/mL
- IL-7: <0.33↓ pg/ml
- IL-8: >17785↑ pg/ml
- IL-9: <1.05↓ pg/ml
- IL-10: 41.17 pg/mL
- IL-12 (p40): <3.02↓ pg/ml
- IL-12 (p70): 4.54 pg/mL
- IL-13: 15.11 pg/mL
- IL-15: <1.45↓ pg/ml
- IL-17A: <1.55↓ pg/ml
- IL-17E/IL-25: <20.59↓ pg/ml
- IL-17F: <16.96↓ pg/ml
- IL-18: 6.51 pg/mL
- IL-22: 28.78 pg/mL
- IL-27: 40.89 pg/mL
- IP-10: <1.56↓ pg/ml
- M-GSF: <23.75↓ pg/ml
- MCP-1: 259 pg/mL and 259.04 pg/mL
- MCP-3: 8.66 pg/mL
- MDC: <0.35↓ pg/ml
- MIG: 124 pg/mL and 124.97 pg/mL
- MIP-1a: 2680 pg/mL
- MIP-1b: 413 pg/mL and 413.11 pg/mL
- PDGF-AA: 4181 pg/mL
- PDGF-AB/BB: <9.75↓ pg/ml
- RANTES: 23.61 pg/mL
- TGF-a: 0.89 pg/mL
- TNFa: 1942 pg/mL
- TNFb: 1.95 pg/mL
- VEGFa: 48.67 pg/mL
- sCD40L: 14.8 pg/mL
